Assay results as given in patent publication US10667516B2, “Use of 3-isoxazolidinones as selective herbicides in grass and Brassica crops” (FMC Corporation, priority 2011, dated 2020).

System: chickweed
Experiment: Volatility evaluation (phytotoxic injury of chickweed by volatilization from treated soil)
Details: formulations containing the non-encapsulated compound
From the text: Chickweed is very sensitive to clomazone and is a good indicator for bleaching compound volatility. […] These formulations are the reference standards against which the experimental formulations are compared. Four inch plastic pots were fitted with a basket style coffee filter, cut to size, placed in the bottom of each pot to cover the drainage holes and to stop soil from exiting the bottom of the pot. Each pot was filled with sandy loam soil that was sieved using a #10 mesh sieve to remove any large soil particles and debris. Filled soil pots were lightly watered prior to treatment application. The test solutions were applied to the soil surface using the DeVries Generation III sprayer, two replicates per test solution, at a rate of 0.25 g ai/ha. Each replicate test was set-up by placing an empty four inch plastic pot onto a greenhouse bench. Pots containing mature chickweed, about 2 inches in height, were placed around the empty pot in an eight spoke pattern. […] The untreated chickweed plants were evaluated for phytotoxic injury at 14 days after treatment. Volatility was evaluated by measuring the distance (cm) from the center of the treated soil pot to the distal point where bleaching effects were observed on each spoke. All eight spokes for each treatment were evaluated. The amount of volatility was determined by calculating the total square centimeters of phytotoxic injury per treatment. […]

SMILES | control of volatility compared to the non-encapsulated clomazone formulation
CC1(C)CON(Cc2ccc(Cl)cc2Cl)C1=O [2,4-Cl, 2-(2,4-dichlorophenyl)methyl-4,4-dimethyl-3-isoxazolidone] | significant control of volatility
CC1(C)CON(Cc2cc(Cl)ccc2Cl)C1=O [2,5-Cl, 2-(2,5-dichlorophenyl)methyl-4,4-dimethyl-3-isoxazolidone] | significant control of volatility
